Laboratory results taken from the CheMixHub ionic liquid set.

Test: xn = mol fraction of the nth substance listed

CCCn1cc[n+](C)c1C.O=[N+]([O-])c1cn[n-]c1 + COCCOCCOCCOCCOC
100 kPa
Settings | viscosity [mPa·s]
278.15 K, x2 = 0.399 | 252
283.15 K, x2 = 0.1 | 1670
283.15 K, x2 = 0.201 | 743
283.15 K, x2 = 0.499 | 88
288.15 K, x2 = 0.1 | 929
288.15 K, x2 = 0.201 | 449
298.15 K, x2 = 0.399 | 62
313.15 K, x2 = 0.201 | 76

CS(C)=O + COCCOCCn1cc[n+](CCC#N)c1.O=S(=O)([N-]S(=O)(=O)C(F)(F)F)C(F)(F)F
101.3 kPa, x2 = 0
Settings | electrical conductivity [S/m]
293.15 K | 0.000587
303.15 K | 0.000881
313.15 K | 0.00118
323.15 K | 0.00148

CCCC[N+](CCCC)(CCCC)CCCC.[Cl-] + CSCC[C@H](N)C(=O)O
101 kPa
Settings | electrical conductivity, x2 = 0.08333 [S/m] | electrical conductivity, x2 = 0.09091 [S/m] | electrical conductivity, x2 = 0.1 [S/m] | viscosity, x2 = 0.08333 [mPa·s] | viscosity, x2 = 0.09091 [mPa·s] | viscosity, x2 = 0.1 [mPa·s]
303.15 K | 0.0061 | 0.0165 | 0.0113 | 2200 | 2300 | 2400
313.15 K | 0.016 | 0.026 | 0.022 | 1400 | 1570 | 1560
323.15 K | 0.0259 | 0.0418 | 0.0313 | 415 | 530 | 480
333.15 K | 0.0749 | 0.0929 | 0.0837 | 221 | 295 | 290
343.15 K | 0.107 | 0.129 | 0.12 | 119 | 157 | 148
353.15 K | 0.14 | 0.17 | 0.15 | 70 | 94 | 87

CCCC[N+](CCCC)(CCCC)CCCC.[Cl-] + C[C@@H](O)[C@H](N)C(=O)O
101 kPa
Settings | electrical conductivity, x2 = 0.09091 [S/m] | electrical conductivity, x2 = 0.1 [S/m] | electrical conductivity, x2 = 0.1111 [S/m] | viscosity, x2 = 0.09091 [mPa·s] | viscosity, x2 = 0.1 [mPa·s] | viscosity, x2 = 0.1111 [mPa·s]
303.15 K | 0.0086 | 0.0049 | 0.0067 | 223 | 179 | 1020
313.15 K | 0.0157 | 0.0117 | 0.0135 | 131 | 104 | 630
323.15 K | 0.0279 | 0.0199 | 0.0236 | 73 | 68 | 322
333.15 K | 0.039 | 0.0311 | 0.036 | 46 | 43 | 186
343.15 K | 0.045 | 0.0402 | – | 34 | 31 | 109
353.15 K | 0.0583 | 0.0516 | 0.0569 | 24 | 24 | 63

CCCC[n+]1ccn(C)c1.[Br-] + C[C@@H](O)[C@H](N)C(=O)O + O
viscosity [mPa·s], 101.3 kPa
Settings | 293.15 K | 298.15 K | 303.15 K | 308.15 K | 313.15 K
x2 = 0, x1 = 0.0007203 | – | – | – | – | 0.674
x2 = 0.0003632, x1 = 0.00072 | 1.028 | 0.918 | 0.825 | 0.748 | 0.682
x2 = 0.0003679, x1 = 0.001439 | 1.053 | 0.943 | 0.85 | 0.773 | 0.707
x2 = 0.0007261, x1 = 0.0007198 | 1.034 | 0.923 | 0.829 | 0.751 | 0.685
x2 = 0.0007318, x1 = 0.001438 | 1.059 | 0.948 | 0.854 | 0.776 | 0.71
x2 = 0.001087, x1 = 0.0007195 | 1.038 | 0.927 | 0.834 | 0.755 | 0.689
x2 = 0.001097, x1 = 0.001438 | 1.064 | 0.952 | 0.859 | 0.78 | 0.714
x2 = 0.001451, x1 = 0.0007192 | 1.043 | 0.932 | 0.838 | 0.76 | 0.693
x2 = 0.001461, x1 = 0.001437 | 1.07 | 0.957 | 0.863 | 0.785 | 0.718
x2 = 0.001813, x1 = 0.000719 | 1.048 | 0.936 | 0.843 | 0.764 | 0.698
x2 = 0.001828, x1 = 0.001437 | 1.075 | 0.961 | 0.868 | 0.789 | 0.723
x2 = 0.002175, x1 = 0.0007187 | 1.053 | 0.941 | 0.847 | 0.769 | 0.702
x2 = 0.002191, x1 = 0.001436 | 1.079 | 0.966 | 0.872 | 0.794 | 0.727
x2 = 0.002537, x1 = 0.0007185 | 1.058 | 0.946 | 0.852 | 0.773 | 0.707
x2 = 0.002557, x1 = 0.001436 | 1.085 | 0.97 | 0.877 | 0.798 | 0.732

CCCCCCCCCCCC[N+](C)(C)Cc1ccccc1.[Cl-] + C[C@H](N)C(=O)O + O
electrical conductivity [S/m], 101 kPa
Settings | 293.15 K | 298.15 K | 303.15 K | 308.15 K
x2 = 0.0009017, x1 = 0.000273 | 0.0801 | 0.0901 | 0.101 | 0.112
x2 = 0.0009017, x1 = 0.0002923 | 0.0832 | 0.0935 | 0.104 | 0.117
x2 = 0.0009017, x1 = 0.00031 | 0.0859 | 0.0967 | 0.108 | 0.121
x2 = 0.0009017, x1 = 0.0003245 | 0.0882 | 0.0994 | 0.111 | 0.124
x2 = 0.0009018, x1 = 0.0001745 | 0.0636 | 0.0709 | 0.0786 | 0.0867
x2 = 0.0009018, x1 = 0.0002014 | 0.0686 | 0.0767 | 0.0852 | 0.0943
x2 = 0.0009018, x1 = 0.0002282 | 0.0731 | 0.0819 | 0.0911 | 0.101
x2 = 0.0009018, x1 = 0.0002515 | 0.0769 | 0.0862 | 0.096 | 0.107
x2 = 0.0009019, x1 = 5.732e-05 | 0.0227 | 0.0255 | 0.0283 | 0.0312
x2 = 0.0009019, x1 = 7.956e-05 | 0.0312 | 0.0349 | 0.0388 | 0.0427
x2 = 0.0009019, x1 = 0.0001004 | 0.0389 | 0.0437 | 0.0484 | 0.0533
x2 = 0.0009019, x1 = 0.0001231 | 0.0474 | 0.053 | 0.0588 | 0.0647
x2 = 0.0009019, x1 = 0.0001486 | 0.0565 | 0.0633 | 0.0701 | 0.077
x2 = 0.001773, x1 = 8.528e-05 | 0.033 | 0.037 | 0.041 | 0.0452
x2 = 0.001773, x1 = 0.0001054 | 0.0404 | 0.0453 | 0.0502 | 0.0553
x2 = 0.001773, x1 = 0.0001263 | 0.0481 | 0.0538 | 0.0597 | 0.0658
x2 = 0.001773, x1 = 0.00015 | 0.0564 | 0.063 | 0.0698 | 0.077
x2 = 0.001773, x1 = 0.000176 | 0.063 | 0.0702 | 0.0778 | 0.086
x2 = 0.001773, x1 = 0.0002016 | 0.0678 | 0.0756 | 0.084 | 0.0932
x2 = 0.001773, x1 = 0.0002266 | 0.0719 | 0.0805 | 0.0896 | 0.0995
x2 = 0.001773, x1 = 0.0002493 | 0.0756 | 0.0847 | 0.0946 | 0.105
x2 = 0.001773, x1 = 0.0002699 | 0.0789 | 0.0885 | 0.099 | –
x2 = 0.001773, x1 = 0.0002888 | 0.082 | 0.0924 | 0.103 | –
x2 = 0.001773, x1 = 0.0003053 | 0.0849 | 0.0956 | 0.107 | –
x2 = 0.001773, x1 = 0.0003178 | 0.0873 | 0.0979 | 0.11 | –
x2 = 0.001774, x1 = 6.278e-05 | 0.0246 | 0.0276 | 0.0306 | 0.0337

Cc1ccc(S(=O)(=O)O)cc1 + C[N+](C)(C)Cc1ccccc1.[Cl-]
101 kPa, x2 = 0.3
Settings | electrical conductivity [S/m] | viscosity [mPa·s]
292.97 K | – | 15200
298 K | – | 12900
302.95 K | – | 8733
307.99 K | – | 5078
308.2 K | 0.05721 | –
313.02 K | – | 2889
313.22 K | 0.08258 | –
317.95 K | – | 1701
318.31 K | 0.1275 | –
323.05 K | – | 1092
323.16 K | 0.187 | –
328.06 K | – | 791
328.17 K | 0.2562 | –
332.98 K | – | 452
333.27 K | 0.345 | –

O=C(O)C(=O)O + C[N+](C)(C)Cc1ccccc1.[Cl-]
101 kPa, x2 = 0.5
Settings | electrical conductivity [S/m] | viscosity [mPa·s]
293.14 K | 0.2104 | –
293.17 K | – | 1971
298.07 K | 0.3284 | –
298.09 K | – | 1362
303.08 K | 0.4611 | –
303.11 K | – | 714
308.09 K | 0.6182 | –
308.12 K | – | 452
312.95 K | – | 266.7
313.1 K | 0.7996 | –
317.96 K | – | 197.3
318.18 K | 1.025 | –
323.06 K | – | 166.6
323.19 K | 1.246 | –
327.98 K | – | 58.6
328.11 K | 1.505 | –
332.99 K | – | 27.7
333.03 K | 1.774 | –

CCCC[n+]1ccn(C)c1.[Br-] + C[NH2+]CCC=C1c2ccccc2CCc2ccccc21.[Cl-] + O
viscosity [mPa·s], 100 kPa
Settings | 288.15 K | 298.15 K | 308.15 K | 318.15 K
x2 = 0, x1 = 0.0001802 | 1.149 | 0.916 | 0.751 | 0.634
x2 = 0, x1 = 0.0007203 | 1.153 | – | – | 0.64
x2 = 0, x1 = 0.00126 | 1.159 | 0.93 | 0.763 | 0.646
